Test results reported in patent publication US10137170B2, “Lipidated incretin receptor ligand human immunoglobulin Fc-region fusion polypeptides” (INDIANA UNIVERSITY RESEARCH AND TECHNOLOGY CORPORATION, priority 2013, dated 2018).
Starred links: 1 amine or outer side, 2 acyl side, 3 side chain; linkers in the order of their positions; H or OH if unused. Positions of bridges follow the written chain, without caps; N, C: chain ends. Non-standard residues stand in square brackets, D forms with d. Groups on a side chain read outwards from the residue. Chains are numbered I, II in the order given. *: point of attachment. γGlu = O=C(O)[C@H](CCC(=O)[*:2])N[*:1]; Desaminotyrosyl = O=C(CCc1ccc(O)cc1)*; Palmitoyl = CCCCCCCCCCCCCCCC(=O)*; X1 = O=C(C[*:1])[*:2]; Aib = CC(C)(N)C(=O)O

Tests used:
Assay type in all cases: cell-based
human GCG-R = target: T1, human GCG-R (Homo sapiens, UniProt P47871); assay: Cyclic AMP (cAMP) assay, cell-suspension format, stably expressed human GCG-receptor in CHO cells; conditions: for EC50: Table 1, cAMP, CHO cells
T1 construct: host or cells: CHO-K1 (cAMP Hunter)
T1 sequence (P47871 26-477): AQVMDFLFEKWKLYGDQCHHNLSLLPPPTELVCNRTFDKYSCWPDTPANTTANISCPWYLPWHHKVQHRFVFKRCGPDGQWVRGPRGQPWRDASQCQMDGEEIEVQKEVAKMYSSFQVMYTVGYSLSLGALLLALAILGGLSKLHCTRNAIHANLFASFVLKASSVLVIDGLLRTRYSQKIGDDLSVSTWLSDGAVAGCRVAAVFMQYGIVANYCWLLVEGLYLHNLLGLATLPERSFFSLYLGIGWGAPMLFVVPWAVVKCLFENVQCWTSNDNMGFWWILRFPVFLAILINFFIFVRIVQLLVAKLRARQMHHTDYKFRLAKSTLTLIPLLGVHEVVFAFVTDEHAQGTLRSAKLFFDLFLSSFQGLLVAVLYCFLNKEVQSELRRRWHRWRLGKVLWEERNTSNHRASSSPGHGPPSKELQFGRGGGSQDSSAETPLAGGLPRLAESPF
Method: (§1) On the day of the experiment, the medium was removed and the cell monolayer was washed with 10 mL phosphate buffered saline (PBS) per flask. […] The flask was gently tapped and the cell suspension was pooled. The cell suspension was centrifuged for 3 min. at 150×g, and supernatant was discarded. The cell pellet was resuspended in assay buffer and cell number determined. Cell concentration was adjusted to 2×10^5 cells/mL. A 25 μL cell suspension aliquot was transferred into each well of a 96-well plate using Multi-drop dispenser (5000 cells/well). A 25 μL aliquot of diluted compound was transferred to the cell plate and the cell suspension incubated for 30 min. at RT on a plate shaker (450 rpm). The reaction was stopped by addition of lysis buffer and cAMP generated was determined using the cAMP dynamic 2 kit from Cisbio following the manufacturer's instructions. The time resolved fluorescence signal was determined using an EnVision (PerkinElmer). Cyclic AMP production was calculated based on standard curve run in parallel for every experiment. Data were analyzed using Excel Fit software.

GIP-R = target: T2, GIP-R (Homo sapiens, UniProt P48546); assay: Cyclic AMP (cAMP) assay, cell-suspension format, stably expressed human GIP-receptor in CHO cells
T2 construct: host or cells: CHO-K1 (cAMP Hunter)
T2 sequence (P48546 22-466): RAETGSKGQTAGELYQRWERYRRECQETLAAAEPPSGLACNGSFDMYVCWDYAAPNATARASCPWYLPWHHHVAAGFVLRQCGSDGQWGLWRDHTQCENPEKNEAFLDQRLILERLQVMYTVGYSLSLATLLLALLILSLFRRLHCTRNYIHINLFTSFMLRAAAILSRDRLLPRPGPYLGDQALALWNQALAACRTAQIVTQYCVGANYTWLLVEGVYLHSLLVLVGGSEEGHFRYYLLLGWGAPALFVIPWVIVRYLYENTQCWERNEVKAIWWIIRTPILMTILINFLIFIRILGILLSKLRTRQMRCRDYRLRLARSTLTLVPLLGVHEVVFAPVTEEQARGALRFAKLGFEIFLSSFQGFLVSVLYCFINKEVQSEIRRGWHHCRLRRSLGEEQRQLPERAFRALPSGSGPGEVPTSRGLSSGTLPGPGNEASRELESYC
Method: as §1

human GLP-R = target: T3, human GLP-R (Homo sapiens, UniProt P43220); assay: Cyclic AMP (cAMP) assay, cell-suspension format, stably expressed human GLP-1-receptor in CHO cells
T3 construct: host or cells: CHO-K1 (cAMP Hunter)
T3 sequence (P43220 24-463): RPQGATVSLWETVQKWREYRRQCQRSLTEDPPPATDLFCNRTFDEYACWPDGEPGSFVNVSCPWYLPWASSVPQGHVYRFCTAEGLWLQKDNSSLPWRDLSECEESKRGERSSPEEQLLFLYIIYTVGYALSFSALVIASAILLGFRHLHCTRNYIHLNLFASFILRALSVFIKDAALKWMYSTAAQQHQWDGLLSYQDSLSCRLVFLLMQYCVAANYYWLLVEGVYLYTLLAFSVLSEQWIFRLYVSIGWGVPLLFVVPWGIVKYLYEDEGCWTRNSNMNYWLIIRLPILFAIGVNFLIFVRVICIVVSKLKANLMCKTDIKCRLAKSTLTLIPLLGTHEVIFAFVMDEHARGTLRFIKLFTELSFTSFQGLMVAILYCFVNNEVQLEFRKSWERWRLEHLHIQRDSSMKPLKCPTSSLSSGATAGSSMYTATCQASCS
Method: as §1

[1] = Table 1, relative to GCG maximum
[2] = Table 1, relative to GIP maximum
[3] = Table 1, relative to GLP-1 maximum

| Substance | human GCG-R % max GCG (human GCG-R; comparative table) | human GIP-R % max GIP (GIP-R; comparative table) | human GLP-R % max GLP-1 (human GLP-R; comparative table) | EC50 (human GCG-R) | human GCG-R % max GCG (human GCG-R; [1]) | human GIP-R % max GIP (GIP-R; [2]) | EC50 (GIP-R; comparative table) | human GLP-R % max GLP-1 (human GLP-R; [3]) | EC50 (human GLP-R; comparative table) | EC50 (GIP-R; Table 1, cAMP, CHO cells) | EC50 (human GLP-R; Table 1, cAMP, CHO cells) |
| --- | --- | --- | --- | --- | --- | --- | --- | --- | --- | --- | --- |
| I: Desaminotyrosyl-AEGTFTSDK([γGlu-Palmitoyl])SKYLDERAAQDFVQWLLEGGPSSGAPPPSC-NH2 / II: GGGLPETGGSGS-OH (linker I:39-II:N via X1) [compound 11] | 28% | 83% | 67% |  |  |  |  |  |  |  |  |
| I: H-Y[Aib]EGTFTSDK([γGlu-γGlu-Palmitoyl])SIYLDKQAA[Aib]EFVNWLLAGGPSSGAPPPSC-NH2 / II: GGGLPETGGSGS-OH (linker I:40-II:N via X1) [compound 9] | 109% | 100% | 91% | 8.86 nM | 109.0% | 90.7% | 0.01 nM | 99.9% |  |  |  |
| I: H-Y[Aib]EGTFTSDK([γGlu-γGlu-Palmitoyl])SIYLDKQAA[Aib]EFVNWLLAGGPSSGAPPPSC-NH2 / II: LPETGGSGS-OH (linker I:40-II:N via X1) [compound 10] | 98% | 97% | 96% |  | 100.2% | 86.7% | 0.01 nM | 96.7% | 0.02 nM |  |  |
| Dulaglutide [reference compound] |  |  |  | > 600 nM | 1.6% | 13.8% |  | 98.2% |  | > 600 nM | 0.129 nM |
| I: Ac-[dY]AVGTFTSDK([γGlu-Palmitoyl])SKYLDERAAQDFVQWLLEGGPSSGAPPPSC-NH2 / II: GGGLPETGGSGS-OH (linker I:40-II:N via X1) [compound 13] | 99% | 91% | 73% |  |  |  |  |  |  |  |  |
| I: Ac-[dY]ALGTFTSDK([γGlu-Palmitoyl])SKYLDERAAQDFVQWLLEGGPSSGAPPPSC-NH2 / II: GGGLPETGGSGS-OH (linker I:40-II:N via X1) [compound 12] | 100% | 90% | 94% |  |  |  |  |  |  |  |  |
